Ends that are not written are not given here.
Columns and labels:
Assay type in all cases: cell-based
human sperm [1] = test: Human sperm penetration assay of zona-free hamster oocytes (SPA); conditions: for Ova penetrated, % of control (mean ± SD): 5-6 hours, sperm of fertile men
Description: Human sperm penetration assay of zona-free-hamster oocytes (SPA) was performed as described in Naz et al., J. Cell Sci., 102:487-494 (1992). Superovulation was induced in adult female golden hamsters by intraperitoneal injections of 30 IU eCG (pregnant mare serum gonadotropin)(Sigma Chemical Co., St. Louis, Mo.) on day 1 of the cycle. After 55-72 hours, 20 IU hCG (human chorionic gonadotropin) (Sigma) were administered intraperitoneally. 15-17 hours later the animals were sacrificed and the mature unfertilized ova were collected from the oviducts. The ova were separated from the surrounding cumulus cells by incubation with 0.2% hyaluronidase in Biggers, Witten and Wittingham (BWW) medium and from the zonae pellucida by treatment with 0.1% pancreatic trypsin in BWW. The zona-free ova were twice washed in BWW and placed in the center of a tissue culture dish.
Semen from a fertile person was liquified for 15-30 minutes at 37° C. and the swim-up sperm population was collected. Collection techniques are described in Naz et al., J. Cell Sci., 99:157-165 (1991). The sperm cells from the swim-up were washed with BWW supplemented with 1% BSA (Sigma Chemical Co.) adjusted to 5-10×10^6 motile sperm per milliliter and then allowed to incubate for 5-6 hours at 37° C. ([…]) or polyclonal antisera elicited in response to those immunogens (10-20 microliters of antiserum/100 microliters of sperm suspension) or the same amount of control antibodies (normal rabbit serum, anti-KLH antibodies or anti-HGP-30 antibodies) or the equivalent volume of PBS containing 0.5% BSA (PBS/BSA). After incubation the sperm were washed to remove the unreacted thymosin or anti-thymosin antibody and co-incubated with the zona-denuded hamster oocytes (30-50 eggs/treatment in each assay) for three to four hours. The oocytes were removed, thoroughly washed, fixed with 3% […] and stained with acetocarmine solution. Sperm penetration was determined by the presence of a swollen spermhead with a discernable tail in the cytoplasm of the ovum. Motility of sperm before and after incubation with ova was recorded. The assays were repeated at least three to eight times using different fertile donors and each sample tested with at least 82-480 oocytes.
The percentage of ova penetrated was calculated according to the following formula; [formula]

human sperm [2] = test: Assessment of acrosomal status (triple stain) of human sperm; conditions: for Effect on capacitation and acrosome reaction of human sperm cells: 0.5 micrograms/microliter, 5-6 hours, with or without ionophore; for Acrosome reacted sperm (%) (Mean ± SD): thymosins 0.5 μg/100 μl
Description: Motile sperm were collected from fertile men by the swim up procedure as set forth in Naz et al., referenced above. Good quality sperm samples, i.e., (5×10^6 motile sperm per milliliter), greater than 75% motility, +3 to +4 forward progression on a scale of 0 to +5 were incubated with Tα1 or Tβ4 or anti-Tα1 antibodies or anti-Tβ4 antibodies. The controls were treated with the same amount of normal rabbit serum, anti-KLH antibodies, anti-HGP 30 antibodies or PBS-BSA as previously described. After incubation, the spermatozoa were centrifuged, washed in PBS and divided into two aliquots. One aliquot was induced to acrosome react with calcium ionophore (Calcium ionophore A23187 (Sigma)) and incubated with sperm suspension for one hour. The other aliquot was allowed to spontaneously acrosome react without treating with calcium ionophore. Calcium ionophore treatment was carried out to induce acrosome reaction of the capacitated sperm. The acrosomal status was assessed using the triple stain procedure described by Jager et al., Arch. Androl., 12:53-58 (1984). The sperm were washed twice in PBS and then incubated at 37° C. for fifteen minutes with 2% Trypan blue (Sigma 1:1 v/v) in PBS. After incubation, the sperm were washed twice, fixed in three percent glutaraldehyde, 0.1M cacodylate buffer for sixty minutes and then twice washed again in PBS. A drop of this suspension was placed on a glass slide and allowed to air dry overnight. The dried slide was stained with 0.8% Bismark Brown (Sigma) in deionized water (pH 1.8 with 2N HCl), rinsed in deionized water and stained for 45 minutes at room temperature in 0.8% Rose Bengal (Sigma) in 0.1M cacodylate buffer at pH 6.0. The slides were again washed in deionized water, dehydrated in an alcohol series, cleared in xylene and mounted with permount and a coverslip. A total of 200-500 sperm per sample were evaluated and recorded as either alive or dead. The alive sperm were further evaluated as acrosome-intact or acrosome-non-intact (reacted) sperm. The experiments were repeated 3-5 times using sperm of at least three different fertile donors.

human sperm [3] = test: Assessment of acrosin distribution (BAPNA acrosin activity in cells and supernatant); conditions: for Effect on acrosin distribution vs PBS-BSA treated sperm: peptide 0.5 micrograms/100 microliters, with or without ionophore; for Acrosin activity, cells (Mean ± SD) / Acrosin activity, supernatant (Mean ± SD): thymosins 0.5 μg/100 μl
Description: After incubation with the thymosin peptides or the anti-thymosin antibodies or control antibodies or PBS-BSA and with or without treating with calcium ionophore A23187 for one hour as described above, the sperm cells were centrifuged and the acrosin activity determined in the supernatant and cells by the method of Kennedy et al., J. Androl., 10:21-27 (1989). Ninety microliters of the supernatant or the pelleted sperm cells suspended in 90 microliters of PBS were mixed with one milliliter of the reaction mixture. The reaction mixture comprises one milligram per milliliter of N-benzoyl-dl-arginine-P-nitraniline (BAPNA) hydrochloride in 0.055M HEPES buffer, 0.055M NaCl, 10% v/v (dimethylsulfoxide), 0.1% v/v TRITON X-100 (t-Octylphenoxypolyethoxyethanol). The solution then was incubated for three hours at room temperature. The reaction was stopped by the addition of 100 microliters of 0.5M benzamidine and the absorbance measured at 405 nanometers using a Beckman spectrophotometer. Acrosin activity was expressed as μIU/10^6 spermatozoa. The daily variability of the assay was normalized using a cryopreserved partially-purified human acrosin extract. The preparation of such extracts is taught by Naz et al., J. Cell Sci., 102:487-494 (1992).

human sperm [4] = test: Sperm motion analysis (computerized semen analyzer); conditions: for Effect on motility characteristics (velocity, ALH, beat frequency) / Effect on the percentage of motile sperm cells: peptide 0.5 micrograms per hundred microliters; for ALH (amplitude of lateral head displacement) (Mean ± S.D.) / Beat Frequency (Mean ± S.D.) / Linearity (Mean ± S.D.) / Percent Motility / Velocity (Mean ± S.D.): thymosins 0.5 μg/100 μl, 5 to 6 hours
Description: After incubation with thymosin peptides or their antibodies for 5 to 6 hours as described above, an aliquot (7 microliters) of the sperm suspension was placed into a Makler chamber (Sefi Medical Instruments, Israel) and the sperm motion characteristics measured using a computerized semen analyzer (Cell Soft Cryo Resources, N.Y.). The parameter settings were 30 frames analyzed at an image frequency of 30 Hz, 3 frames minimum sampling for motility, 15 frames minimum sampling for both velocity and amplitude of the lateral head movement ("ALH") measurements, 10 micrometers per second threshold velocity, minimum linearity of 2.5 for ALH measurements and a cell size range of 4-40 pixels with a magnification calibration of 0.688 micrometers per pixel.

[5] = peptide 0.1 μg/100 μl sperm suspension
[6] = peptide 0.5 μg/100 μl sperm suspension
[7] = peptide 2.0 μg/100 μl sperm suspension
[8] = peptide 10.0 μg/100 μl sperm suspension

Substance | Ova penetrated, % of control (mean ± SD) (human sperm [1]; [5]) [%] | Ova penetrated, % of control (mean ± SD) (human sperm [1]; [6]) [%] | Ova penetrated, % of control (mean ± SD) (human sperm [1]; [7]) [%] | Ova penetrated, % of control (mean ± SD) (human sperm [1]; [8]) [%] | Effect on capacitation and acrosome reaction of human sperm cells (human sperm [2]) | Acrosome reacted sperm (%) (Mean ± SD) (human sperm [2]; with ionophore treatment) | Acrosome reacted sperm (%) (Mean ± SD) (human sperm [2]; without ionophore treatment) | Effect on acrosin distribution vs PBS-BSA treated sperm (human sperm [3]) | Acrosin activity, cells (Mean ± SD) (human sperm [3]; with ionophore treatment) [μIU/10^6 spermatozoa] | Acrosin activity, supernatant (Mean ± SD) (human sperm [3]; with ionophore treatment) [μIU/10^6 spermatozoa] | Acrosin activity, cells (Mean ± SD) (human sperm [3]; without ionophore treatment) [μIU/10^6 spermatozoa] | Acrosin activity, supernatant (Mean ± SD) (human sperm [3]; without ionophore treatment) [μIU/10^6 spermatozoa] | Effect on motility characteristics (velocity, ALH, beat frequency) (human sperm [4]) | Effect on the percentage of motile sperm cells (human sperm [4]) | ALH (amplitude of lateral head displacement) (Mean ± S.D.) (human sperm [4]) | Beat Frequency (Mean ± S.D.) (human sperm [4]) | Linearity (Mean ± S.D.) (human sperm [4]) | Percent Motility (human sperm [4]) [%] | Velocity (Mean ± S.D.) (human sperm [4]) | also measured
thymosin-α1 (SDAAVDTSSEITTKDLKEKKEVVEEAEN; not fully specified; ends and bridges not checked; UniProt P06454 2-29, looked up) [Tα1, Thymus factor peptide; available from Alpha 1 Biomedicals] | 251.0 ± 36.3 | 204.0 ± 13.9 | 100.5 ± 0.7 | 102.2 ± 18.9 | significantly enhanced capacitation and acrosome reaction | 69.2 ± 3.6 | 18.5 ± 3.5 | significantly higher quantity of acrosin concentration released in the supernatant and a lower quantity of acrosin concentration in the sperm cells | 30.6 ± 7.2 | 68.2 ± 16.6 | 64.5 ± 6.4 | 27.5 ± 13.4 | significantly affected the velocity, ALH and beat frequency | No effect | 4.0 ± 0.3 | 13.7 ± 0.6 | 3.9 ± 0.6 | 80.3 ± 6.2 | 61.1 ± 3.0 | Fold increase of percentage of ova penetrated compared to PBS-BSA-treated control sperm (human sperm [1]; 0.05 to 0.5 μg Tα1/100 μl sperm suspension, P<0.001): up to 2.6 fold; Ova penetrated, % of control (mean ± SD) (human sperm [1]; peptide 0.01 μg/100 μl sperm suspension): 120.3 ± 11.6%; Ova penetrated, % of control (mean ± SD) (human sperm [1]; peptide 0.05 μg/100 μl sperm suspension): 268.2 ± 26.4%
thymosin-β4 [Tβ4] | 102.7 ± 6.5 | 99.7 ± 10.1 | 61.8 ± 27.9 | 31.5 ± 12.2 | did not exhibit a significant effect | 61.5 ± 4.8 | 14.5 ± 2.1 | no significant effect | 38.5 ± 7.1 | 52.8 ± 16.2 | 76.5 ± 9.1 | 21.0 ± 14.4 | Neither Tβ4 peptide nor the control antibodies affected any motility characteristics | No effect | 3.7 ± 0.4 | 13.1 ± 0.3 | 4.0 ± 0.6 | 76.0 ± 4.3 | 58.5 ± 2.6 | –
